Measurements taken from patent US20230167093A1, “COMPOUNDS AND METHODS FOR MODULATING SPLICING” (REMIX THERAPEUTICS INC., priority 2020, published 2023).

What was measured:
Type in all cases: cell-based
HTT AJ mRNA = assay: RT-qPCR splicing assay, HTT alternative junction (AJ) mRNA increase; settings: A673 or K562 cells, 24 hours compound treatment, top dose 10 uM; concentration having 50% response in AJ increase
Method: (§1) Compounds described herein were used to modulate RNA transcript abundance in cells. The expression of a target mRNA was measured by detecting the formation of an exon-exon junction in the canonical transcript (CJ). A compound mediated exon-inclusion event was detected by observing an increase in formation of a new junction with an alternative exon (AJ). Real-time qPCR assays were used to detect these splicing switches and interrogate the potency of various compounds towards different target genes. A high-throughput real time quantitative PCR (RT-qPCR) assay was developed to measure these two isoforms of the mRNA (CJ and AJ) for an exemplary gene, HTT, together with a control housekeeping gene, GAPDH or GUSB or PPIA, used for normalization. Briefly, the A673 or K562 cell line was treated with various compounds described herein (e.g., compounds of Formula (I) or (II)). After treatment, the levels of the HTT mRNA targets were determined from each sample of cell lysate by cDNA synthesis followed by qPCR.
(§2) The A673 cell line was cultured in DMEM with 10% FBS. Cells were diluted with full growth media and plated in a 96-well plate (15,000 cells in 100 ul media per well). The plate was incubated at 37° C. with 5% CO2 for 24 hours to allow cells to adhere. An 11-point 3-fold serial dilution of the compounds was made in DMSO then diluted in media in an intermediate plate. Compounds were transferred from the intermediate plate to the cell plate with the top dose at a final concentration of 10 uM in the well. Final DMSO concentration was kept at or below 0.25%. The cell plate was returned to the incubator at 37° C. with 5% CO2 for an additional 24 hours.
(§3) The K562 cell line was cultured in IMDM with 10% FBS. For K562, cells were diluted with full growth media and plated in either a 96-well plate (50,000 cells in 50 uL media per well) or a 384-well plate (8,000-40,000 cells in 45 uL media per well). An 11-point 3-fold serial dilution of the compounds were made in DMSO then diluted in media in an intermediate plate. Compound was transferred from the intermediate plate to the cell plate with the top dose at a final concentration of 10 uM in the well. Final DMSO concentration was kept at or below 0.25%. Final volume was 100 uL for 96-well plate and 50 uL for 384-well plate. The cell plate was then placed in an incubator at 37° C. with 5% CO2 for 24 hours.
(§4) The cells were then gently washed with 50 uL-100 uL cold PBS before proceeding to addition of lysis buffer. 30 uL-50 uL of room temperature lysis buffer with DNAse I (and optionally RNAsin) was added to each well. Cells were shaken/mixed thoroughly at room temperature for 5-10 minutes for lysis to take place and then 3 uL-5 uL of room temperature stop solution was added and wells were shaken/mixed again. After 2-5 minutes, the cell lysate plate was transferred to ice for RT-qPCR reaction setup. The lysates could also be frozen at −80° C. for later use.
(§5) In some cases, a direct lysis buffer was used. An appropriate volume of 3× lysis buffer (10 mM Tris, 150 mM NaCl, 1.5%-2.5% Igepal and 0.1-1 U/uL RNAsin, pH 7.4) was directly added to either K562 or A673 cells in media and mixed by pipetting 3 times. The plates were then incubated at room temperature with shaking/rocking for 20-50 minutes to allow for lysis to take place. After this time, the cell lysate plate was transferred to ice to set up for the RT-qPCR reactions. The lysates could also be frozen at −80° C. for later use.
(§6) To set up 10 uL RT-qPCR reactions, cell lysates were transferred to 384-well qPCR plates containing the master mix according to the table below. The plates were sealed, gently vortexed, and spun down before the run. The volumes were adjusted accordingly in some instances where the reaction was carried in 20 uL. The table below summarizes the components of the RT-qPCR reactions:
(§7) The RT-qPCR reaction was performed using a QuantStudio (ThermoFisher) under the following fast cycling conditions. […]

HTT CJ mRNA [1] = assay: RT-qPCR splicing assay, HTT canonical junction (CJ) mRNA decrease; settings: A673 or K562 cells, 24 hours compound treatment, top dose 10 uM; concentration having 50% response in CJ decrease
Method: as §1, §2, §3, §4, §5, §6, §7

HTT CJ mRNA [2] = assay: Gene panel canonical junction qPCR assay, HTT; settings: protocol as above, concentration having 50% response in CJ decrease, read-out: HTT IC50 (decrease in CJ mRNA levels)
Method: as §1, §2, §3, §4, §5, §6, §7

SMN2 CJ mRNA = assay: Gene panel canonical junction qPCR assay, SMN2; settings: protocol as above, concentration having 50% response in CJ decrease, read-out: SMN2 IC50 (decrease in CJ mRNA levels)
Method: as §1, with “After treatment, the levels of the HTT mRNA targets were determined from each sample of cell lysate by cDNA synthesis followed by qPCR.” left out
as §2, §3, §4, §5, §6
The RT-qPCR reaction was performed using a QuantStudio (ThermoFisher) under the following fast cycling conditions. All samples and standards were analyzed at least in duplicate. […]

Target C CJ mRNA = assay: Gene panel canonical junction qPCR assay, Target C; settings: protocol as above, concentration having 50% response in CJ decrease, read-out: Target C IC50 (decrease in CJ mRNA levels)
Method: as §1, §2, §3, §4, §5, §6, §7

CN(c1ccc2ncn(-c3cc(F)c4nn(C)cc4c3)c(=O)c2c1)C1CCNCC1 [Compound 198, 3-(7-fluoro-2-methyl-2H-indazol-5-yl)-6-(methyl(piperidin-4-yl)amino)quinazolin-4(3H)-one]
> 10 µM: AC50 (HTT AJ mRNA) | AC50 (HTT CJ mRNA [1]) | IC50 (HTT CJ mRNA [2]) | IC50 (SMN2 CJ mRNA) | IC50 (Target C CJ mRNA)

CN1[C@H]2CC[C@@H]1C=C(c1ccc3ncn(-c4ccc5nn(C)cc5c4)c(=O)c3c1)C2 [Compound 168, 3-(2-methyl-2H-indazol-5-yl)-6-((1R,5S)-8-methyl-8-azabicyclo[3.2.1]oct-2-en-3-yl)quinazolin-4(3H)-one]
> 10 µM: AC50 (HTT AJ mRNA) | AC50 (HTT CJ mRNA [1]) | IC50 (HTT CJ mRNA [2]) | IC50 (SMN2 CJ mRNA) | IC50 (Target C CJ mRNA)
